Reference: patent publication US20230085307A1, “PYRIDAZINONE COMPOUND AND HERBICIDE” (NISSAN CHEMICAL CORPORATION, priority 2019, published 2023)

The molecules below were run on Japanese bulrush (assay: Test Example 1: herbicidal activity, application before weed generation under submerged conditions (Table 16, symbol B)). Conditions: 320 g/ha applied herbicide.
Type: in vivo, Japanese bulrush (Schoenoplectus juncoides)
How it was run: (§1)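 Alluvial soil was flooded to 4 cm depth, weed seeds were sown mixed and 2.5-leaf rice seedlings were transplanted. On sowing day, the compound's emulsion, diluted in water to a set dose, was applied to the water surface. Plants grew at 25–30 °C and were scored 0–5 after three weeks.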

Row | Structure (SMILES) | Herbicidal effect on B: Japanese bulrush (grade 0-5)
1 | CCCOc1ccccc1-c1sc2ccccc2c1-c1c(O)c(C)nn(C)c1=O [1-015] | 3 (Herbicidal rate of 40% or more and less than 70%)
2 | Cc1nn(C)c(=O)c(-c2c(-c3ccccc3OC(F)(F)F)sc3ccccc23)c1O [1-030] | 5 (Herbicidal rate of 90% or more (almost completely withered))

Each molecule was assayed on oval-leafed pondweed (assay: Test Example 1: herbicidal activity, application before weed generation under submerged conditions (Table 16, symbol C)). Conditions: 320 g/ha applied herbicide.
Type: in vivo, oval-leafed pondweed (Monochoria vaginalis)
How it was run: as §1

Row | Structure (SMILES) | Herbicidal effect on C: oval-leafed pondweed (grade 0-5)
3 | CCCOc1ccccc1-c1sc2ccccc2c1-c1c(O)c(C)nn(C)c1=O [1-015] | 3 (Herbicidal rate of 40% or more and less than 70%)
4 | Cc1nn(C)c(=O)c(-c2c(-c3ccccc3OC(F)(F)F)sc3ccccc23)c1O [1-030] | 4 (Herbicidal rate of 70% or more and less than 90%)

What follows are molecules tested on Japanese bulrush (assay: Test Example 2: herbicidal activity, application during weed generation under submerged conditions (Table 17, symbol B)). Conditions: AAH 320 g/ha; application during weed generation, submerged conditions.
Type: in vivo, Japanese bulrush (Schoenoplectus juncoides)
How it was run: (§2)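 Herbicide emulsion, diluted with water to the chosen amount, is applied onto 4 cm floodwater over alluvial soil where the weeds were co-sown and raised at 25–30° C. Application timing: 1–2 leaves. Assessment: three weeks afterwards.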

Row | Structure (SMILES) | herbicidal effect rating, B: Japanese bulrush
5 | CCCOc1ccccc1-c1sc2ccccc2c1-c1c(O)c(C)nn(C)c1=O [1-015] | 1 (Herbicidal rate of 5% or more and less than 20%)
6 | Cc1nn(C)c(=O)c(-c2c(-c3ccccc3OC(F)(F)F)sc3ccccc23)c1O [1-030] | 3 (Herbicidal rate of 40% or more and less than 70%)

These molecules were tested on oval-leafed pondweed (assay: Test Example 2: herbicidal activity, application during weed generation under submerged conditions (Table 17, symbol C)). Conditions: AAH 320 g/ha; application during weed generation, submerged conditions.
Type: in vivo, oval-leafed pondweed (Monochoria vaginalis)
How it was run: as §2

Row | Structure (SMILES) | herbicidal effect rating, C: oval-leafed pondweed
7 | CCCOc1ccccc1-c1sc2ccccc2c1-c1c(O)c(C)nn(C)c1=O [1-015] | 2 (Herbicidal rate of 20% or more and less than 40%)
8 | Cc1nn(C)c(=O)c(-c2c(-c3ccccc3OC(F)(F)F)sc3ccccc23)c1O [1-030] | 3 (Herbicidal rate of 40% or more and less than 70%)

These molecules were tested on green foxtail (assay: Test Example 4: herbicidal effect by soil treatment (Table 19, symbol G)). Conditions: amount of applied herbicide 320 g/ha.
Type: in vivo, green foxtail (Setaria viridis)
How it was run: (§3)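 Herbicidal effect was rated 3 weeks after treatment, using the scoring criteria of an earlier test. The compound, formulated as an emulsion and diluted in water to a set herbicide amount, had been sprayed uniformly on soil over freshly sown seeds. Growth took place in a greenhouse at 25° C. to 30° C.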

Row | Structure (SMILES) | herbicidal effect rating, G: green foxtail
9 | CCCOc1ccccc1-c1sc2ccccc2c1-c1c(O)c(C)nn(C)c1=O [1-015] | 4 (Herbicidal rate of 70% or more and less than 90%)
10 | Cc1nn(C)c(=O)c(-c2c(-c3ccccc3OC(F)(F)F)sc3ccccc23)c1O [1-030] | 4 (Herbicidal rate of 70% or more and less than 90%)

The molecules below were run on barnyard grass (assay: Test Example 4: herbicidal effect by soil treatment (Table 19, symbol H)). Conditions: amount of applied herbicide 320 g/ha.
Type: in vivo, barnyard grass (Echinochloa crus-galli)
How it was run: as §3

Row | Structure (SMILES) | herbicidal effect rating, H: barnyard grass
11 | CCCOc1ccccc1-c1sc2ccccc2c1-c1c(O)c(C)nn(C)c1=O [1-015] | 4 (Herbicidal rate of 70% or more and less than 90%)
12 | Cc1nn(C)c(=O)c(-c2c(-c3ccccc3OC(F)(F)F)sc3ccccc23)c1O [1-030] | 4 (Herbicidal rate of 70% or more and less than 90%)

What follows are molecules tested on wild oat (assay: Test Example 4: herbicidal effect by soil treatment (Table 19, symbol I)). Conditions: amount of applied herbicide 320 g/ha.
Type: in vivo, wild oat (Avena fatua)
How it was run: as §3

Row | Structure (SMILES) | herbicidal effect rating, I: wild oat
13 | CCCOc1ccccc1-c1sc2ccccc2c1-c1c(O)c(C)nn(C)c1=O [1-015] | 0 (Herbicidal rate of 5% or less (almost no effect))
14 | Cc1nn(C)c(=O)c(-c2c(-c3ccccc3OC(F)(F)F)sc3ccccc23)c1O [1-030] | 1 (Herbicidal rate of 5% or more and less than 20%)

Each molecule was assayed on redroot pigweed (assay: Test Example 4: herbicidal effect by soil treatment (Table 19, symbol N)). Conditions: amount of applied herbicide 320 g/ha.
Type: in vivo, redroot pigweed (Amaranthus retroflexus)
How it was run: as §3

Row | Structure (SMILES) | herbicidal effect rating, N: redroot pigweed
15 | CCCOc1ccccc1-c1sc2ccccc2c1-c1c(O)c(C)nn(C)c1=O [1-015] | 0 (Herbicidal rate of 5% or less (almost no effect))
16 | Cc1nn(C)c(=O)c(-c2c(-c3ccccc3OC(F)(F)F)sc3ccccc23)c1O [1-030] | 5 (Herbicidal rate of 90% or more (almost completely withered))

The molecules below were run on chickweed (assay: Test Example 4: herbicidal effect by soil treatment (Table 19, symbol P)). Conditions: amount of applied herbicide 320 g/ha.
Type: in vivo, common chickweed (Stellaria media)
How it was run: as §3

Row | Structure (SMILES) | herbicidal effect rating, P: chickweed
17 | CCCOc1ccccc1-c1sc2ccccc2c1-c1c(O)c(C)nn(C)c1=O [1-015] | 3 (Herbicidal rate of 40% or more and less than 70%)
18 | Cc1nn(C)c(=O)c(-c2c(-c3ccccc3OC(F)(F)F)sc3ccccc23)c1O [1-030] | 5 (Herbicidal rate of 90% or more (almost completely withered))

What follows are molecules tested on southern crabgrass (assay: Test Example 5: herbicidal effect by foliage application, plastic box (Table 20, symbol F)). Conditions: foliage application, 320 g/ha, three weeks after application.
Type: in vivo, southern crabgrass (Digitaria ciliaris)
How it was run: (§4)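 Foliar spray test: emulsion formulation diluted in water to a set application rate, sprayed onto 14-day-old plants raised in diluvial soil at 25° C to 30° C under glass. Both herbicidal effect and crop effect rated visually three weeks later.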

Row | Structure (SMILES) | herbicidal effect grade, F: southern crabgrass
19 | CCCOc1ccccc1-c1sc2ccccc2c1-c1c(O)c(C)nn(C)c1=O [1-015] | 3 (Herbicidal rate of 40% or more and less than 70%)
20 | Cc1nn(C)c(=O)c(-c2c(-c3ccccc3OC(F)(F)F)sc3ccccc23)c1O [1-030] | 5 (Herbicidal rate of 90% or more (almost completely withered))

Each molecule was assayed on green foxtail (assay: Test Example 5: herbicidal effect by foliage application, plastic box (Table 20, symbol G)). Conditions: foliage application, 320 g/ha, three weeks after application.
Type: in vivo, green foxtail (Setaria viridis)
How it was run: as §4

Row | Structure (SMILES) | herbicidal effect grade, G: green foxtail
21 | CCCOc1ccccc1-c1sc2ccccc2c1-c1c(O)c(C)nn(C)c1=O [1-015] | 4 (Herbicidal rate of 70% or more and less than 90%)
22 | Cc1nn(C)c(=O)c(-c2c(-c3ccccc3OC(F)(F)F)sc3ccccc23)c1O [1-030] | 5 (Herbicidal rate of 90% or more (almost completely withered))

What follows are molecules tested on barnyard grass (assay: Test Example 5: herbicidal effect by foliage application, plastic box (Table 20, symbol H)). Conditions: foliage application, 320 g/ha, three weeks after application.
Type: in vivo, barnyard grass (Echinochloa crus-galli)
How it was run: as §4

Row | Structure (SMILES) | herbicidal effect grade, H: barnyard grass
23 | CCCOc1ccccc1-c1sc2ccccc2c1-c1c(O)c(C)nn(C)c1=O [1-015] | 3 (Herbicidal rate of 40% or more and less than 70%)
24 | Cc1nn(C)c(=O)c(-c2c(-c3ccccc3OC(F)(F)F)sc3ccccc23)c1O [1-030] | 4 (Herbicidal rate of 70% or more and less than 90%)

The molecules below were run on wild oat (assay: Test Example 5: herbicidal effect by foliage application, plastic box (Table 20, symbol I)). Conditions: foliage application, 320 g/ha, three weeks after application.
Type: in vivo, wild oat (Avena fatua)
How it was run: as §4

Row | Structure (SMILES) | herbicidal effect grade, I: wild oat
25 | CCCOc1ccccc1-c1sc2ccccc2c1-c1c(O)c(C)nn(C)c1=O [1-015] | 3 (Herbicidal rate of 40% or more and less than 70%)
26 | Cc1nn(C)c(=O)c(-c2c(-c3ccccc3OC(F)(F)F)sc3ccccc23)c1O [1-030] | 4 (Herbicidal rate of 70% or more and less than 90%)

These molecules were tested on windgrass (assay: Test Example 5: herbicidal effect by foliage application, plastic box (Table 20, symbol L)). Conditions: foliage application, 320 g/ha, three weeks after application.
Type: in vivo, windgrass (Apera spica-venti)
How it was run: as §4

Row | Structure (SMILES) | herbicidal effect grade, L: windgrass
27 | CCCOc1ccccc1-c1sc2ccccc2c1-c1c(O)c(C)nn(C)c1=O [1-015] | 5 (Herbicidal rate of 90% or more (almost completely withered))
28 | Cc1nn(C)c(=O)c(-c2c(-c3ccccc3OC(F)(F)F)sc3ccccc23)c1O [1-030] | 5 (Herbicidal rate of 90% or more (almost completely withered))

These molecules were tested on chickweed (assay: Test Example 5: herbicidal effect by foliage application, plastic box (Table 20, symbol P)). Conditions: foliage application, 320 g/ha, three weeks after application.
Type: in vivo, common chickweed (Stellaria media)
How it was run: as §4

Row | Structure (SMILES) | herbicidal effect grade, P: chickweed
29 | CCCOc1ccccc1-c1sc2ccccc2c1-c1c(O)c(C)nn(C)c1=O [1-015] | 5 (Herbicidal rate of 90% or more (almost completely withered))
30 | Cc1nn(C)c(=O)c(-c2c(-c3ccccc3OC(F)(F)F)sc3ccccc23)c1O [1-030] | 5 (Herbicidal rate of 90% or more (almost completely withered))

The molecules below were run on persian speedwell (assay: Test Example 5: herbicidal effect by foliage application, plastic box (Table 20, symbol R)). Conditions: foliage application, 320 g/ha, three weeks after application.
Type: in vivo, Persian speedwell (Veronica persica)
How it was run: as §4

Row | Structure (SMILES) | herbicidal effect grade, R: persian speedwell
31 | CCCOc1ccccc1-c1sc2ccccc2c1-c1c(O)c(C)nn(C)c1=O [1-015] | 5 (Herbicidal rate of 90% or more (almost completely withered))
32 | Cc1nn(C)c(=O)c(-c2c(-c3ccccc3OC(F)(F)F)sc3ccccc23)c1O [1-030] | 5 (Herbicidal rate of 90% or more (almost completely withered))
